For 26 compounds, EC50 results are on record in patent US11339156B2, “3-(1H-pyrazol-4-yl)pyridine allosteric modulators of the M4 muscarinic acetylcholine receptor” (Merck Sharp & Dohme Corp., priority 2017, dated 2022).

The experiment addresses T1, human M4 muscarinic acetylcholine receptor (Homo sapiens, UniProt P08173).
T1 construct: expressed in transfected cells
T1 sequence (P08173 1-479): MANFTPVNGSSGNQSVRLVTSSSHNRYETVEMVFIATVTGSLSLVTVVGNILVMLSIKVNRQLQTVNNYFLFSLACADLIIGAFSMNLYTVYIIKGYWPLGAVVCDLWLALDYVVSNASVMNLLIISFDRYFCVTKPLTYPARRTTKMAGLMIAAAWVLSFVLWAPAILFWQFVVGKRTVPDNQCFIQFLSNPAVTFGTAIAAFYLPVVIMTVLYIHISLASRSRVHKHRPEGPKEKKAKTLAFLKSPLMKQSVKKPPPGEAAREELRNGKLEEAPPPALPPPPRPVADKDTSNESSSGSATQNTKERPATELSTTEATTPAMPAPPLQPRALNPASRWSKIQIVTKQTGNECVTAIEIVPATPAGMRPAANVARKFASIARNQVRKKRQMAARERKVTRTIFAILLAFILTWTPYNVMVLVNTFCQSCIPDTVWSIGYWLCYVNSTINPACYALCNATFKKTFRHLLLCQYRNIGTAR
As to the kind of experiment: human FLIPR-based M4 PAM assay (CHO-K1 cells with human M4 receptor and Gαqi5, calcium dye fluorescence). Type of experiment: cell-based. Particulars: inflection point of 4 parameter logistic fit; acetylcholine added at 20% of maximum response; read-out: M4PAM IP. The method, then:
In a typical experiment the M4 muscarinic acetylcholine receptor modulating activity of the compounds of the present invention was determined in accordance with the following experimental method. CHO-K1 cells stably transfected with human M4 receptor and chimeric G-protein Gαqi5 (Coward P, et al., Analytical Biochemistry, 270:242-248 (1999)) are thawed from liquid N2 storage, resuspended in growth medium, plated in black, clear bottom 384 well plates, and incubated 16-20 hours at 37° C., 5% CO2. On the day of assay, growth medium is removed, the cells are washed 2 times with wash buffer, and cells are incubated in dye loading buffer at 37° C., 5% CO2 for ˜1 hour. Following dye loading the cell plates are placed in a FLIPR Tetra instrument and while monitoring dye fluorescence (excitation […]), 10 uL of test substance at increasing concentrations is added, and fluorescence values are recorded for 4 min. Next, 10 uL of acetylcholine is added (final concentration calculated so as to achieve 20% of the maximum acetycholine response), and the fluorescence reading is continued for 3.5 min. In some cases, a third addition of acetylcholine (final concentration calculated to achieve 70% of the maximal acetylcholine response) is performed. The resulting dose response curves are fit to a 4 parameter logistic equation and the final result is determined as the inflection point (IP) of the curve
CHO-K1 cells stably transfected with human M4 receptor and chimeric G-protein Gαqi5 are thawed from liquid N2 storage, resuspended in growth medium, plated in black, clear bottom 384 well plates, and incubated 16-20 hours at 37° C., 5% CO2.
On the day of assay, growth medium is removed, the cells are washed 2 times with wash buffer, and cells are incubated in dye loading buffer at 37° C., 5% CO2 for ˜1 h. Following dye loading the cell plates are placed in a FLIPR Tetra instrument and while monitoring dye fluorescence ([…]), 10 uL of test substance at increasing concentrations is added, and fluorescence values are recorded for 4 min. Next, 10 uL of acetylcholine is added (final concentration calculated so as to achieve 20% of the maximum acetycholine response), and the fluorescence reading is continued for 3.5 min. In some cases, a third addition of acetylcholine (final concentration calculated to achieve 70% of the maximal acetylcholine response) is performed.
For the compound `N#Cc1ccc(-c2cnn(C[C@H]3C[C@@H]3C(F)(F)F)c2)c(-c2ccn3ccnc3c2)n1` [Example 25, 6-imidazo[1,2-a]pyridin-7-yl-5-(1-{[(1S,2S)-2-(trifluoromethyl)cyclo-propyl]methyl}-1H-pyrazol-4-yl)pyridine-2-carbonitrile], the EC50 turned out to be 78.1 nM.

On to `Cc1ccc(-c2cnn(CC(C)(C)C(F)(F)F)c2)c(-c2ccn3ccnc3c2)n1` [Example 26], for which the EC50 is 25.5 nM.

Take `Cc1nc2cc(-c3nc(C#N)ccc3-c3cnn(CCC(C)(F)F)c3)ccc2n1C` [Example 27, 5-[1-(3,3-difluorobutyl)-1H-pyrazol-4-yl]-6-(1,2-dimethyl-1H-benzimidazol-5-yl)pyridine-2-carbonitrile]: the EC50 was 74 nM.

With `Cc1nc2cc(-c3nc(C#N)ccc3-c3cnn(CC(C)(C)C(C)(F)F)c3)ccc2n1C` [Example 28, 5-[1-(3,3-difluoro-2,2-dimethylbutyl)-1H-pyrazol-4-yl]-6-(1,2-dimethyl-1H-benzimidazol-5-yl)pyridine-2-carbonitrile], the EC50 is 67.4 nM.

Take `Cc1cn2ccc(-c3nc(C#N)ccc3-c3cnn(CCC(F)(F)C(F)(F)F)c3)cc2n1` [Example 29, 6-(2-methylimidazo[1,2-a]pyridin-7-yl)-5-[1-(3,3,4,4,4-pentafluorobutyl)-1H-pyrazol-4-yl]pyridine-2-carbonitrile]: the EC50 stood at 96.9 nM.

With `Cc1nc2cc(-c3nc(C#N)ccc3-c3cnn(CCC(F)(F)C(F)F)c3)ccc2n1C` [Example 30, 6-(1,2-dimethyl-1H-benzimidazol-5-yl)-5-[1-(3,3,4,4-tetrafluorobutyl)-1H-pyrazol-4-yl]pyridine-2-carbonitrile], the EC50 stood at 102 nM.

Turning to `Cc1nc2cc(-c3nc(C#N)ccc3-c3cnn(CC(C)(F)F)c3)ccc2n1C` [Example 31, 5-[1-(2,2-difluoropropyl)-1H-pyrazol-4-yl]-6-(1,2-dimethyl-1H-benzimidazol-5-yl)pyridine-2-carbonitrile], the EC50 was determined as 163 nM.

Regarding `Cc1nc2cc(-c3nc(C#N)ccc3-c3cnn(CC(F)C(C)(F)F)c3)ccc2n1C` (centres unmarked) [Example 32, 6-(1,2-dimethyl-1H-benzimidazol-5-yl)-5-[1-(2,3,3-trifluorobutyl)-1H-pyrazol-4-yl]pyridine-2-carbonitrile], the EC50 is 81.9 nM.

Turning to `Cc1nc2cc(-c3nc(C#N)ccc3-c3cnn(CC(C)(F)C(C)(F)F)c3)ccc2n1C` (centres unmarked) [Example 33, 6-(1,2-dimethyl-1H-benzimidazol-5-yl)-5-[1-(2,3,3-trifluoro-2-methylbutyl)-1H-pyrazol-4-yl]pyridine-2-carbonitrile], the EC50 was 51 nM.

Regarding `Cc1nc2cc(-c3nc(C#N)ccc3-c3cnn(CC(C)(C)CC(F)F)c3)ccc2n1C` [Example 34, 5-[1-(4,4-difluoro-2,2-dimethylbutyl)-1H-pyrazol-4-yl]-6-(1,2-dimethyl-1H-benzimidazol-5-yl)pyridine-2-carbonitrile], the EC50 worked out at 54.2 nM.

In the case of `Cc1cn2ccc(-c3nc(C#N)ccc3-c3cnn(CC4(CC(C)C)CC4)c3)cc2n1` [Example 35, 6-(2-methylimidazo[1,2-a]pyridin-7-yl)-5-(1-{[1-(2-methylpropyl)cyclo-propyl]methyl}-1H-pyrazol-4-yl)pyridine-2-carbonitrile], the EC50 came out at 108 nM.

As to `CC(C)C1(Cn2cc(-c3ccc(C#N)nc3-c3ccn4ccnc4c3)cn2)CC1` [Example 36, 6-imidazo[1,2-a]pyridin-7-yl-5-(1-{[1-(1-methylethyl)cyclo-propyl]methyl}-1H-pyrazol-4-yl)pyridine-2-carbonitrile], the EC50 was 37.4 nM.

For the compound `CCC1(Cn2cc(-c3ccc(C#N)nc3-c3ccn4ccnc4c3)cn2)CC1` [Example 37, 5-{1-[(1-ethylcyclopropyl)methyl]-1H-pyrazol-4-yl}-6-imidazo[1,2-a]pyridin-7-ylpyridine-2-carbonitrile], the EC50 worked out at 14.5 nM.

As to `Cn1cnc2cc(-c3nc(C#N)ccc3-c3cnn(CC4(C)CCOCC4)c3)ccc21` [Example 38, 6-(1-methyl-1H-benzimidazol-5-yl)-5-{1-[(4-methyltetrahydro-2H-pyran-4-yl)methyl]-1H-pyrazol-4-yl}pyridine-2-carbonitrile], the EC50 was 165 nM.

For the compound `Cc1cn2ncc(-c3nc(C#N)ccc3-c3cnn(CC(C)(C)C(F)(F)F)c3)cc2n1` [Example 39, 6-(2-methylimidazo[1,2-b]pyridazin-7-yl)-5-[1-(3,3,3-trifluoro-2,2-dimethylpropyl)-1H-pyrazol-4-yl]pyridine-2-carbonitrile], the EC50 was found to be 75.8 nM.

As for `Cc1cn2ccc(-c3nc(C#N)ccc3-c3cnn(CCC(F)(F)F)c3)cc2n1` [Example 40, 6-(2-methylimidazo[1,2-a]pyridin-7-yl)-5-[1-(3,3,3-trifluoropropyl)-1H-pyrazol-4-yl]pyridine-2-carbonitrile], the EC50 was determined as 141 nM.

For the compound `Cc1cn2ccc(-c3nc(C#N)ccc3-c3cnn(CC(F)C(F)(F)F)c3)cc2n1` (centres unmarked) [Example 41, 6-(2-methylimidazo[1,2-a]pyridin-7-yl)-5-[1-(2,3,3,3-tetrafluoropropyl)-1H-pyrazol-4-yl]pyridine-2-carbonitrile], the EC50 amounted to 62.2 nM.

Consider `N#Cc1ccc(-c2cnn(CC(F)(F)C(F)(F)F)c2)c(-c2ccn3ccnc3c2)n1` [Example 42, 6-imidazo[1,2-a]pyridin-7-yl-5-[1-(2,2,3,3,3-pentafluoropropyl)-1H-pyrazol-4-yl]pyridine-2-carbonitrile], for which the EC50 amounted to 151 nM.

In the case of `Cc1cn2ccc(-c3nc(C#N)ccc3-c3cnn(CCC(O)C(F)(F)F)c3)cc2n1` (centres unmarked) [Example 43, 6-(2-methylimidazo[1,2-a]pyridin-7-yl)-5-[1-(4,4,4-trifluoro-3-hydroxybutyl)-1H-pyrazol-4-yl]pyridine-2-carbonitrile], the EC50 was 88.3 nM.

`CC(C)(Cn1cc(-c2ccc(C#N)nc2-c2ccn3ccnc3c2)cn1)C(F)(F)F` [Example 44, 6-(imidazo[1,2-a]pyridin-7-yl)-5-(1-(3,3,3-trifluoro-2,2-dimethylpropyl)-1H-pyrazol-4-yl)picolinonitrile]: the EC50 was 28.4 nM.

For `N#Cc1ccc(-c2cnn(CCC3CC3)c2)c(-c2ccn3ccnc3c2)n1` [Example 45, 5-[1-(2-cyclopropylethyl)-1H-pyrazol-4-yl]-6-imidazo[1,2-a]pyridin-7-ylpyridine-2-carbonitrile], the EC50 is 35.6 nM.

Take `CC(C)(C#N)Cn1cc(-c2ccc(C#N)nc2-c2ccn3ccnc3c2)cn1` [Example 46, 5-[1-(2-cyano-2-methylpropyl)-1H-pyrazol-4-yl]-6-imidazo[1,2-a]pyridin-7-ylpyridine-2-carbonitrile]: the EC50 came out at 242 nM.

As to `CC(C)(C)Cn1cc(-c2ccc(C#N)nc2-c2ccn3ccnc3c2)cn1` [Example 48, 5-[1-(2,2-dimethylpropyl)-1H-pyrazol-4-yl]-6-imidazo[1,2-a]pyridin-7-ylpyridine-2-carbonitrile], the EC50 is 29.7 nM.

As to `Cc1cn2ccc(-c3nc(C#N)ccc3-c3cnn(CCC(C)(C)C#N)c3)cc2n1` [Example 49, 5-[1-(3-cyano-3-methylbutyl)-1H-pyrazol-4-yl]-6-(2-methylimidazo[1,2-a]pyridin-7-yl)pyridine-2-carbonitrile], the EC50 was determined as 174 nM.

Consider `CN1Cc2ccc(-c3nc(C#N)ccc3-c3cnn(CC4(C)CC4)c3)cc2C1=O` [Example 50, 5-{1-[(1-methylcyclopropyl)methyl]-1H-pyrazol-4-yl}-6-(2-methyl-3-oxo-2,3-dihydro-1H-isoindol-5-yl)pyridine-2-carbonitrile], for which the EC50 stood at 51.2 nM.

On to `N#Cc1ccc(-c2cnn(CC3CC34CC4)c2)c(-c2ccn3ccnc3c2)n1` (centres unmarked) [Example 51, 6-imidazo[1,2-a]pyridin-7-yl-5-[1-(spiro[2.2]pent-1-ylmethyl)-1H-pyrazol-4-yl]pyridine-2-carbonitrile], for which the EC50 came to 54.6 nM.
